Test [1] has as its system isolated coronary arteries. In words: Hypoxia-induced vasodilation of isolated pressurized coronary arteries. Also on record: species or system mouse. As to conditions: psora-4 500 nM; WT coronary arteries, 60 mmHg, pre-constricted with 100 nM U46619.
Experimental: Arterial diameter measurements: Primary and secondary branches of the left anterior descending coronary arteries and third and fourth order branches of mesenteric arteries and were dissected and kept in ice-cold isolation buffer consisting of (in mM): 134 NaCl, 6 KCl, 1 MgCl2, 2 CaCl2, 10 HEPES, 7 D-glucose, pH 7.4. Isolated arteries were used for arterial diameter measurements within 8 h after dissection. Isolated arteries were cleaned of connective tissue and cannulated on glass micropipettes mounted in a linear alignment single vessel myograph chamber (Living Systems Instrumentation, St. Albans, Vt., USA). […] Following an equilibration period (45-60 min), lumenal diameter was continuously monitored and recorded with a charge coupled device (CCD) camera and edge detection software (IonOptix, Milton, Mass., USA). […] Bath O2 levels were measured using a dissolved oxygen meter (World Precision Instruments, Sarasota, Fla., USA). At the end of each experiment, the maximum passive diameter was measured in the presence of Ca^2+-free PSS containing the L-type Ca^2+ channel inhibitor nifedipine (1 μM) and adenylyl cyclase activator forskolin (0.5 μM), as described previously. Vasoconstriction is expressed as a decrease in arterial diameter relative to the maximum passive diameter at a given intravascular pressure. […]
The subject of test [2] is coronary arterial myocytes. In words: Perforated whole cell patch clamp of outward K+ current. The class given is cell-based, mouse. On the procedure: In situ proximity ligation: Arterial myocytes were isolated from coronary and mesenteric arteries using enzymatic digestion procedures, similar to those described previously. Briefly, arteries were incubated in digestion buffer containing (in mM): 140 NaCl, 5 KCl, 2 MgCl2, 10 HEPES, 10 glucose, pH 7.4 at 37° C. for 1 min. […]
Patch clamp electrophysiology: Arterial myocytes were isolated from coronary arteries as described above. […] Total outward K^+ currents (IK) were recorded from coronary arterial myocytes using the perforated whole cell configuration of the patch clamp technique in voltage clamp mode using an Axopatch 200B patch clamp amplifier (Axon Instruments). […] K^+ currents were recorded from each cell in the absence and presence of L-lactate (10 mM) in bath solution with and without psora-4 (500 nM). […] Patch clamp data were analyzed suing Clampfit 9 software (Axon Instruments). IK is expressed as peak currents reached during the period of depolarization normalized by cell capacitance and expressed as pA/pF.

Test [3] deals with isolated coronary arteries. As to the kind of experiment: L-lactate-induced vasodilation of preconstricted isolated coronary arteries. Also on record: species or system mouse. On the procedure: Arterial diameter measurements: Primary and secondary branches of the left anterior descending coronary arteries and third and fourth order branches of mesenteric arteries and were dissected and kept in ice-cold isolation buffer consisting of (in mM): 134 NaCl, 6 KCl, 1 MgCl2, 2 CaCl2, 10 HEPES, 7 D-glucose, pH 7.4. Isolated arteries were used for arterial diameter measurements within 8 h after dissection. Isolated arteries were cleaned of connective tissue and cannulated on glass micropipettes mounted in a linear alignment single vessel myograph chamber (Living Systems Instrumentation, St. Albans, Vt., USA). For some experiments, the vascular endothelium was functionally ablated by passage of air through the lumen (˜30 s) during the cannulation procedure. After cannulation, the chamber was placed on an inverted microscope and arteries were equilibrated at 37° C. and intravascular pressure of 20 mmHg, maintained with a pressure servo control unit (Living Systems Instrumentation, St. Albans, Vt., USA) under continuous perfusion (3-5 ml·min^−1) of physiological saline solution (PSS) consisting of (in mM): 119 NaCl, 4.7 KCl, 1.2 KH2PO4, 1.2 MgCl2, 7 D-glucose, 24 NaHCO3, 2 CaCl2, maintained at pH 7.35-7.45 via aeration with gas mixture containing 5% CO2 and 20% O2 (balanced with N2). Following an equilibration period (45-60 min), lumenal diameter was continuously monitored and recorded with a charge coupled device (CCD) camera and edge detection software (IonOptix, Milton, Mass., USA). […] Bath O2 levels were measured using a dissolved oxygen meter (World Precision Instruments, Sarasota, Fla., USA). At the end of each experiment, the maximum passive diameter was measured in the presence of Ca^2+-free PSS containing the L-type Ca^2+ channel inhibitor nifedipine (1 μM) and adenylyl cyclase activator forskolin (0.5 μM), as described previously. Vasoconstriction is expressed as a decrease in arterial diameter relative to the maximum passive diameter at a given intravascular pressure. […]

The test system of test [4] is isolated mesenteric arteries. In words: Vasodilation of preconstricted isolated mesenteric arteries. Also on record: species or system mouse. Here is the method:
Arterial diameter measurements: Primary and secondary branches of the left anterior descending coronary arteries and third and fourth order branches of mesenteric arteries and were dissected and kept in ice-cold isolation buffer consisting of (in mM): 134 NaCl, 6 KCl, 1 MgCl2, 2 CaCl2, 10 HEPES, 7 D-glucose, pH 7.4. Isolated arteries were used for arterial diameter measurements within 8 h after dissection. Isolated arteries were cleaned of connective tissue and cannulated on glass micropipettes mounted in a linear alignment single vessel myograph chamber (Living Systems Instrumentation, St. Albans, Vt., USA). For some experiments, the vascular endothelium was functionally ablated by passage of air through the lumen (˜30 s) during the cannulation procedure. After cannulation, the chamber was placed on an inverted microscope and arteries were equilibrated at 37° C. and intravascular pressure of 20 mmHg, maintained with a pressure servo control unit (Living Systems Instrumentation, St. Albans, Vt., USA) under continuous perfusion (3-5 ml·min^−1) of physiological saline solution (PSS) consisting of (in mM): 119 NaCl, 4.7 KCl, 1.2 KH2PO4, 1.2 MgCl2, 7 D-glucose, 24 NaHCO3, 2 CaCl2, maintained at pH 7.35-7.45 via aeration with gas mixture containing 5% CO2 and 20% O2 (balanced with N2). Following an equilibration period (45-60 min), lumenal diameter was continuously monitored and recorded with a charge coupled device (CCD) camera and edge detection software (IonOptix, Milton, Mass., USA). Experiments were performed to examine effects of step-wise increases in intravascular pressure (20-100 mmHg), elevated [K^+]o (via isosmotic replacement of KCl for NaCl), the synthetic thromboxane A2 analogue U46619 (Tocris Bioscience, Minneapolis, Minn., USA), adenosine (Sigma Aldrich, St. Louis, Mo., USA), or L-lactate (Sigma Aldrich, St. Louis, Mo., USA). For some experiments, hypoxic bath conditions were generated by perfusion of 1 mM Na2S2O4-containing PSS aerated with 5% CO2 (balance N2; 0% O2). Bath O2 levels were measured using a dissolved oxygen meter (World Precision Instruments, Sarasota, Fla., USA). At the end of each experiment, the maximum passive diameter was measured in the presence of Ca^2+-free PSS containing the L-type Ca^2+ channel inhibitor nifedipine (1 μM) and adenylyl cyclase activator forskolin (0.5 μM), as described previously. Vasoconstriction is expressed as a decrease in arterial diameter relative to the maximum passive diameter at a given intravascular pressure. Changes in diameter (e.g., vasodilation) are normalized to differences from baseline and maximum passive diameters for each experiment.

Structures are written as SMILES.

Consider three molecules from patent US20220226265A1, “METHODS OF CONTROLLING MYOCARDIAL BLOOD FLOW” (UNIVERSITY OF LOUISVILLE RESEARCH FOUNDATION, INC., priority 2021, published 2022).

Regarding `O=c1ccc2c(OCCCCc3ccccc3)c3ccoc3cc2o1` [psora-4], the “attenuation of hypoxia-induced vasodilation” value in test [1] is around 58%. Besides, the “effect on L-lactate-induced increase in outward K+ current density” value in test [2] (psora-4 500 nM, 10 mM L-lactate) was “abolished”. Besides, in test [3] (psora-4 500 nM, L-lactate 5-20 mM, WT coronary arteries), the “effect on L-lactate-induced vasodilation” value is on record as “abolished”. For the same molecule, the “effect on vasodilation in response to L-lactate” value in test [4] (psora-4 500 nM, WT mesenteric arteries) is reported as “eliminated”.

Regarding `C[C@H](O)C(=O)O` [L-lactate], in test [2] (10 mM L-lactate in the bath, 1-3 min), the “outward K+ current density” value is reported as “significant increase”. In test [3] (L-lactate 5-20 mM, WT coronary arteries pre-constricted with 100 nM U46619), the “vasodilation in response to external L-lactate” value is listed as “step-wise vasodilation”. Also, in test [3] (coronary arteries isolated from Kvβ2−/− mice), the L-lactate-induced vasodilation entry is “abolished”. In test [4] (L-lactate 5-20 mM, WT mesenteric arteries preconstricted with 100 nM U46619), the “dilation on application of L-lactate” value was “robust and reversible dilation”. For the same molecule, the L-lactate-mediated vasodilation result in test [4] (endothelium-denuded mesenteric arteries, 10 mM L-lactate) is “insensitive to endothelial denudation”; in test [4] (mesenteric arteries constricted with elevated external K+ (60 mM) rather than U46619), “abolished”. Further, the “dilatory response to L-lactate” value in test [4] (mesenteric arteries from Kvβ1.1−/− mice vs corresponding WT) was “not significantly different”. In test [4] (mesenteric arteries from SM22α-rtTA:TRE-Kvβ1 vs single transgenic control mice), the “vasodilation in response to extracellular L-lactate” value was “significantly blunted vasodilation”. The “vasodilation in response to L-lactate” value in test [4] (mesenteric arteries with loss of Kvβ2) is recorded as “eliminated”.

`Nc1ncnc2c1ncn2[C@@H]1O[C@H](CO)[C@@H](O)[C@H]1O` [adenosine]: in test [4] (adenosine 1-100 μM, Kvβ1.1−/− or Kvβ2−/− arteries vs corresponding WT), the “vasodilation induced by adenosine” value is “not significantly different”.
